Where two headings read alike, the source gives them in different places.
Key:
31 biomolecular targets = experiment: In vitro pharmacology panel of 31 biomolecular targets, dose-response; assay type: biochemical; conditions: for IC50: read-out: Avg potency
Method: (§1) For a detailed description of our collaborators' in vitro pharmacology assay panels, please see the publication by Pottel et al. (Pottel et al., 2020). Briefly, each in vitro assay focuses on one biomolecular target known to be associated with common negative side effects of pharmaceuticals in humans. These targets are generally enzymes, cell surface receptors, or other proteins that mediate cell signal transduction. In one assay panel, chemical compound interaction is assessed for 31 biomolecular targets in a dose-response fashion, which assesses compound-target interaction strength expressed as an IC50 and an activity range (unless no interaction happens).
These last two features are derived from the first panel of 31 biomolecular targets, which are assayed using a concentration series of each excipient to produce a dose-response curve.

[1] = system: biomolecular targets known to be associated with common negative side effects of pharmaceuticals in humans; experiment: In vitro secondary pharmacology panels, all targets of the two panels (31 dose-response + 78 single concentration); assay type: biochemical; conditions: percentage of targets hit among all targets tested in the two secondary pharmacology panels
Method: The purpose of this study was to assess the toxicity risk estimation provided by the Cell Health Screen relative to information from panels of in vitro pharmacology assays that were also designed to detect toxicity risk during pharmaceutical development. This study was performed with outside collaborators who have expertise in the use of the in vitro pharmacology assays. These in vitro assay panels detect whether chemical compounds directly interact with biomolecular targets known to be associated with toxic side effects in humans (mostly enzymes, cell surface receptors, and other proteins that participate in signaling pathways) (Pottel et al., 2020). […] As such, the interpretation process is somewhat subjective. In contrast, the Cell Health Screen uses a feature extraction and ML classifier strategy described above, to reduce all cellular phenotypic changes caused by a chemical compound to a single probability value, from 0 to 1. This is a quantitative toxicity risk estimation relative to a training set of compounds used to train the ML classifier. Therefore, comparing results from the Cell Health Screen to the in vitro pharmacology panels is a matter of comparing the trend in ML classifier probability values, across all 40 excipients, with their relative degrees of promiscuity and target interaction potency observed in the in vitro pharmacology panels.
as §1
Here we present two summarized versions of the study results. […] For the biological endpoints, the abbreviation key is as follows: CM=cell morphology, CMI=cell membrane integrity, ROS=reactive oxygen species, GTH=glutathione, NMI1=nuclear membrane integrity 1, CC=cell cycle, NMI2=nuclear membrane integrity 2, MMP=mitochondrial membrane potential. […] This is the percentage of all biomolecular targets for which an effect was observed, for each excipient. The THR value serves as an expression of an excipient's promiscuity with regard to binding biomolecular targets known to associate with toxic side effects in humans.

HL60 cells = experiment: AsedaSciences SYSTEMETRIC Cell Health Screen (multiparametric acute cell stress assay, flow cytometry, ML classifier); conditions: probability (0 to 1) of assignment to the 'yes' high cell stress class; HL60, 4 hours, 5 nM-100 μM
Excerpt: The Cell Health Screen is a multiparametric acute cell stress assay, using a panel of fluorescent physiological reporting dyes, on an automated flow cytometry platform. Rather than simply producing dose-response curves for all individual biological readouts, features are generated by computing custom-defined distance functions between test and control wells. All test compounds are represented as feature vectors, after which the analysis algorithm employs a logistic regression model to classify test compounds relative to a training set. This machine learning (ML) approach integrates all measured readouts into a single predictive statistical model. […] This training set empirically covers the full range of possible phenotypes in the Cell Health Screen, from no-response to acute stress, with sufficient representation across the spectrum. Training set compounds were assigned to binary classes (“yes”=expectation of high cell stress or “positive” phenotype; “no”=no expectation of positive phenotype). This externally established ground-truth was based upon manually curated information from research literature and, where applicable, clinical trial results and commercial/regulatory histories.
For an unknown test compound, the ML classifier uses all the FC parameter features describing compound response, simultaneously, to predict the final assignment. This is achieved by calculating the probability of assigning that compound's screen phenotype to the “yes” class defined by the training set. By specifying the problem as a classification challenge, the data analysis pipeline assures that any apparent lack of coordinated change among biological readouts presents no interpretation challenge. All phenotypic data are treated simply as input features to a statistical model. In contrast, many conventional flow cytometry assays require strict mechanistic interpretation of every measured biological readout. often resulting in conflicting conclusions (e.g. if reactive oxygen species increase, but glutathione is unaffected, which should be “believed”?). The final probability score, or Cell Health Index, is a quantitative assessment of a multiparametric phenotype's similarity to a diverse set of known good and bad actors. Finally, choosing HL60 as our reporter cell line means that the screen is explicitly designed not to detect instances in which a parent compound only causes cellular toxicity via metabolites.
In a 384-well platform. HL60 cells are exposed to a 10-step, 3× dilution series of each test compound (5 nM-100 μM) for 4 hours at 37° C. with 5% CO2. Each dilution series is screened in duplicate, occupying a total of 20 wells, allowing 16 test compounds to be assayed on each plate. Each row contains one positive and one negative control well, for a total of 16 matched control pairs on each assay plate. Compound formatting, cell deposition, and dye application are performed robotically, so that final assay conditions comprise 100,000 cells in a 40 μl volume. After compound exposure, live cells are rapidly stained with a panel of fluorescent dyes that report physiological signatures of both mitochondrial dysfunction and gross cell stress. Fluorescence data are collected using automated flow cytometry with no gating. […] Well-specific flow cytometry data files, with an accompanying map of well contents, are moved to cloud infrastructure where the automated algorithm for quality control and ML classification is triggered. […]

[2] = average concentration of the IC50 values from dose-response results, panel of 31 targets
[3] = first panel of 31 biomolecular targets, concentration series

Row | Molecule | IC50 (31 biomolecular targets; [2]) | Activity range (31 biomolecular targets; [3]) | Overall target hit rate [1] | IC50 (31 biomolecular targets) | CHI score (Cell Health Index) (HL60 cells) | Activity range (31 biomolecular targets)
1 | CCCOC(=O)c1cc(O)c(O)c(O)c1 [Propyl gallate] | 7.2 µM | 0.015 to 7.2 µM | 3% |  |  | 
2 | CC(C)(C)CC(C)(C)c1ccc(OCCOCC[N+](C)(C)Cc2ccccc2)cc1 [Benzethonium chloride] |  |  | 51% |  |  | 
3 | CN(C)c1ccc2nc3ccc(=[N+](C)C)cc-3sc2c1 [Methylene blue hydrate] | 6.5 µM | 0.04 to 24 µM | 48% |  |  | 
4 | O=C([O-])c1c(Cl)c(Cl)c(Cl)c(Cl)c1-c1c2cc(Br)c(=O)c(Br)c-2oc2c(Br)c([O-])c(Br)cc12.[Na+].[Na+] [D&C Red #28, Phloxine B] |  | 0.13 to 28 µM | 55% | 10 µM | 0.637 | 
5 | Polysorbate 80 |  | 1.0 to 21 µM | 13% | 10.7 µM | 0.422 | 
6 | Cc1cc(O)cc(C)c1Cl [Chloroxylenol, 4-chloro-3,5-dimethylphenol] | 12 µM | 10 to 14 µM | 6% |  | 0.349 | 
7 | O=C1OC2(c3ccccc31)c1cc(I)c(O)c(I)c1Oc1c2cc(I)c(O)c1I [FD&C Red #3, Erythrosine extra bluish] | 5.7 µM | 0.09 to 25 µM | 48% |  |  | 
8 | C[CH2][Hg][S]c1ccccc1C(=O)[O-].[Na+] [Thimerosal] |  |  | 17% | 15 µM | 0.936 | 0.32 to 30 µM
9 | CC(=O)[O-].[Hg+][c]1ccccc1 [Phenylmercuric acetate] |  |  | 58% | 5 µM | 0.955 | 0.02 to 22 µM
10 | CCCOC(=O)c1ccc(O)cc1 [Propylparaben] | 19.3 µM | 11 to 24 µM | 3% |  |  | 

From US20240337647A1, “IMPROVED METHODS FOR IDENTIFICATION OF FUNCTIONAL CELL STATES” (priority 2021, published 2024)
